Measured values as given in PubChem BioAssay (NCI).
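GI50 marks 50% less growth. TGI: total growth inhibition.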

Columns and labels:
Experiment in all cases: NCI tumour cell line growth inhibition, 384-well format
786-0 renal = tested on: 786-0 renal
A498 renal = tested on: A498 renal
A549 NSCLC = tested on: A549 NSCLC
ACHN renal = tested on: ACHN renal
BT-549 breast = tested on: BT-549 breast
CAKI-1 renal = tested on: CAKI-1 renal
CCRF-CEM leukemia = tested on: CCRF-CEM leukemia
COLO 205 colon = tested on: COLO 205 colon
DU-145 prostate = tested on: DU-145 prostate
EKVX NSCLC = tested on: EKVX NSCLC
HCC-2998 colon = tested on: HCC-2998 colon
HCT-116 colon = tested on: HCT-116 colon
HCT-15 colon = tested on: HCT-15 colon
HL-60(TB) leukemia = tested on: HL-60(TB) leukemia
HOP-62 NSCLC = tested on: HOP-62 NSCLC
HOP-92 NSCLC = tested on: HOP-92 NSCLC
HT29 colon = tested on: HT29 colon
IGROV1 ovarian = tested on: IGROV1 ovarian
K-562 leukemia = tested on: K-562 leukemia
KM12 colon = tested on: KM12 colon
LOX IMVI melanoma = tested on: LOX IMVI melanoma
M14 melanoma = tested on: M14 melanoma
MALME-3M melanoma = tested on: MALME-3M melanoma
MCF7 breast = tested on: MCF7 breast
MDA-MB-231 breast = tested on: MDA-MB-231 breast
MDA-MB-435 melanoma = tested on: MDA-MB-435 melanoma
MDA-MB-468 breast = tested on: MDA-MB-468 breast
MOLT-4 leukemia = tested on: MOLT-4 leukemia
NCI-H226 lung = tested on: NCI-H226 lung
NCI-H23 lung = tested on: NCI-H23 lung
NCI-H322M lung = tested on: NCI-H322M lung
NCI-H460 NSCLC = tested on: NCI-H460 NSCLC
NCI-H522 lung = tested on: NCI-H522 lung
NCI/ADR-RES ovarian = tested on: NCI/ADR-RES ovarian
OVCAR-3 ovarian = tested on: OVCAR-3 ovarian
OVCAR-4 ovarian = tested on: OVCAR-4 ovarian
OVCAR-5 ovarian = tested on: OVCAR-5 ovarian
OVCAR-8 ovarian = tested on: OVCAR-8 ovarian
PC-3 prostate = tested on: PC-3 prostate
RPMI-8226 leukemia = tested on: RPMI-8226 leukemia
RXF 393 renal = tested on: RXF 393 renal
SF-268 CNS = tested on: SF-268 CNS
SF-295 CNS = tested on: SF-295 CNS
SF-539 CNS = tested on: SF-539 CNS
SK-MEL-2 melanoma = tested on: SK-MEL-2 melanoma
SK-MEL-28 melanoma = tested on: SK-MEL-28 melanoma
SK-MEL-5 melanoma = tested on: SK-MEL-5 melanoma
SK-OV-3 ovarian = tested on: SK-OV-3 ovarian
SN12C renal = tested on: SN12C renal
SNB-19 CNS = tested on: SNB-19 CNS
SNB-75 CNS = tested on: SNB-75 CNS
SR leukemia = tested on: SR leukemia
SW-620 colon = tested on: SW-620 colon
T-47D breast = tested on: T-47D breast
TK-10 renal = tested on: TK-10 renal
U251 glioblastoma = tested on: U251 glioblastoma
UACC-257 melanoma = tested on: UACC-257 melanoma
UACC-62 melanoma = tested on: UACC-62 melanoma
UO-31 renal = tested on: UO-31 renal

## C[C@H]1CN(C2COC2)CCN1c1ccc(Nc2cc(-c3ccnc(N4CCn5c(cc6c5CC(C)(C)C6)C4=O)c3CO)cn(C)c2=O)nc1
786-0 renal
  GI50: 21.8 µM
  TGI: > 52.2 µM
A498 renal
  GI50: 14.3 µM
  TGI: 28.2 µM
A549 NSCLC
  GI50: 18.5 µM
  TGI: > 54.3 µM
ACHN renal
  GI50: 19.9 µM
  TGI: > 54.2 µM
BT-549 breast
  GI50: 18.9 µM
  TGI: 40.9 µM
CAKI-1 renal
  GI50: 17.8 µM
  TGI: > 48.1 µM
CCRF-CEM leukemia
  GI50: 3.36 µM
  TGI: 13.4 µM
COLO 205 colon
  GI50: 19.8 µM
  TGI: 39.8 µM
DU-145 prostate
  GI50: 30.8 µM
  TGI: 97.1 µM
EKVX NSCLC
  GI50: 76.9 µM
  TGI: > 100 µM
HCC-2998 colon
  GI50: 3.62 µM
  TGI: 14.5 µM
HCT-116 colon
  GI50: 20.6 µM
  TGI: > 52.4 µM
HCT-15 colon
  GI50: 28.3 µM
  TGI: > 55.3 µM
HL-60(TB) leukemia
  GI50: 12.9 µM
  TGI: 25.9 µM
HOP-62 NSCLC
  GI50: 17.8 µM
  TGI: > 48.1 µM
HOP-92 NSCLC
  GI50: 1.15 µM
  TGI: 6.86 µM
HT29 colon
  GI50: 20.5 µM
  TGI: > 50.1 µM
IGROV1 ovarian
  GI50: 15.5 µM
  TGI: 33.9 µM
K-562 leukemia
  GI50: 20.6 µM
  TGI: > 53.8 µM
KM12 colon
  GI50: 26.2 µM
  TGI: > 58.9 µM
LOX IMVI melanoma
  GI50: 17.7 µM
  TGI: 31.7 µM
M14 melanoma
  GI50: 35 µM
  TGI: > 54.7 µM
MALME-3M melanoma
  GI50: 34.8 µM
  TGI: > 54 µM
MCF7 breast
  GI50: 14.1 µM
  TGI: > 44 µM
MDA-MB-231 breast
  GI50: 6.46 µM
  TGI: 20.4 µM
MDA-MB-435 melanoma
  GI50: 26.2 µM
  TGI: > 55.9 µM
MDA-MB-468 breast
  GI50: 14.5 µM
  TGI: 32.8 µM
MOLT-4 leukemia
  GI50: 0.731 µM
  TGI: 1.93 µM
NCI-H226 lung
  GI50: 11.8 µM
  TGI: 28.4 µM
NCI-H23 lung
  GI50: 33.5 µM
  TGI: > 78.7 µM
NCI-H322M lung
  GI50: 28.6 µM
  TGI: > 72.8 µM
NCI-H460 NSCLC
  GI50: 37.7 µM
  TGI: > 100 µM
NCI-H522 lung
  GI50: 12.7 µM
  TGI: 37.2 µM
NCI/ADR-RES ovarian
  GI50: 20.8 µM
  TGI: 55.9 µM
OVCAR-3 ovarian
  GI50: 10.7 µM
  TGI: 24.7 µM
OVCAR-4 ovarian
  GI50: 13.3 µM
  TGI: > 51.6 µM
OVCAR-5 ovarian
  GI50: 24.1 µM
  TGI: > 67.1 µM
OVCAR-8 ovarian
  GI50: 20.9 µM
  TGI: > 60.7 µM
PC-3 prostate
  GI50: 28.1 µM
  TGI: 90.1 µM
RPMI-8226 leukemia
  GI50: 0.86 µM
  TGI: 2.55 µM
RXF 393 renal
  GI50: 3.89 µM
  TGI: 26.8 µM
SF-268 CNS
  GI50: 16.8 µM
  TGI: 35.4 µM
SF-295 CNS
  GI50: 35 µM
  TGI: > 60.1 µM
SF-539 CNS
  GI50: 25.5 µM
  TGI: > 53.4 µM
SK-MEL-2 melanoma
  GI50: 4.87 µM
  TGI: 24.5 µM
SK-MEL-28 melanoma
  GI50: > 36.9 µM
  TGI: > 53 µM
SK-MEL-5 melanoma
  GI50: 27.8 µM
  TGI: > 48.2 µM
SK-OV-3 ovarian
  GI50: 16.3 µM
  TGI: 35.7 µM
SN12C renal
  GI50: 20.2 µM
  TGI: 44.5 µM
SNB-19 CNS
  GI50: 29.8 µM
  TGI: > 85.4 µM
SNB-75 CNS
  GI50: 30.5 µM
  TGI: 81.6 µM
SR leukemia
  GI50: 5.31 µM
  TGI: 18.4 µM
SW-620 colon
  GI50: 17.5 µM
  TGI: 38.1 µM
T-47D breast
  GI50: 20.3 µM
  TGI: > 59.5 µM
TK-10 renal
  GI50: 17 µM
  TGI: 32.8 µM
U251 glioblastoma
  GI50: 41.4 µM
  TGI: > 100 µM
UACC-257 melanoma
  GI50: 16.4 µM
  TGI: 34.5 µM
UACC-62 melanoma
  GI50: 14.6 µM
  TGI: > 54.6 µM
UO-31 renal
  GI50: 16.2 µM
  TGI: 29.8 µM
